The results in this text go back to patent US20220089540A1 (Board of Trustees of Michigan State University, priority 2019, published 2022).

One test has as its system lung tumors of A/J mice. Briefly: Vinyl carbamate-induced (Kras) lung cancer in A/J mice. It counts as in vivo, mouse. On the procedure: To evaluate the effects of LG268, with and without other chemotherapeutic agents, female A/J mice were injected with a weekly dose of vinyl carbamate for twelve weeks to induce lung tumors of between 0.5 and 1 mm in diameter. A/J mice were randomized and treated with either control diet or rexinoids fed in the diet (100 mg/kg diet). One week after the treatment diets started, mice were injected with 6 cycles of carboplatin (50 mg/kg i.p.), paclitaxel (15 mg/kg i.p.), or a combination thereof, given every other week. At the end of the studies, lungs were harvested en bloc and inflated with buffered formalin (NBF); liver and plasma were collected to determine drug levels and lipid concentrations. Step sectioning (200 μm between sections) of the left lung started at the medial hilar surface, and sections were stained with hematoxylin and eosin. The number, size, and histopathology of randomized, coded tumors were assessed on two separate sections of each lung by two independent investigators. Classification of the tumors as low, medium, or high grade was based on previously published histologic and nuclear criteria. The efficacy of other rexinoids (e.g., MSU 42011) for treatment of lung cancer, alone and in combination with standard of care chemotherapy (carboplatin and paclitaxel), is currently being evaluated in this preclinical model.

Test [1] relates to mammary gland tumors of MMTV-Neu mice. Nature of the test: MMTV-Neu mouse model of HER2 positive breast cancer, rexinoid in diet.
The next test concerns tumors of PyMT mice. Nature of the test: PyMT mouse model of triple negative breast cancer, treatment until endpoint. In kind it is in vivo. As to the method:
To determine if the immune modulation induced by LG268 treatment in MMTV-Neu mice could be extended to a model of triple negative breast cancer (TNBC), the inventors repeated the in vivo studies in PyMT mice. PyMT mice with a tumor volume of 32-64 mm^3 were treated with LG268 (100 mg/kg of diet) or with a control diet until the tumor burden met maximum defined endpoints allowed by the IACUC-approved animal protocol (individual tumor volume <520 mm^3). In mice receiving the control diet, these tumors progressed extremely rapidly so that the average age to reach maximum tumor volume was 31 days.

The test system of a further test is CD206. Nature of the test: CD206 expression in RAW 264.7 cells stimulated with E18-14C-27 conditioned media (immunoblot). In kind it is cell-based, mouse. Conditions: increasing concentrations, 24 hours. As to the method: RAW 264.7 mouse macrophage-like (ATCC) and E18-14C-27 (Wu et al., Cancer Res. 62, 6376-6380 (2002)) cells were cultured in DMEM supplemented with 10% fetal bovine serum (FBS). RAW 264.7 cells were cultured at 50000/well in a 6 well plate for 24 hours to determine PD-L1 levels. E18-14C-27 cells were cultured for 72 hours in the presence of LG268 for protein levels. Conditioned media was collected from E18-14C-27 at 60-70% confluence for 24 hours; media was then collected and centrifuged at 900 rpm for 5 minutes to eliminate any cell debris.
To explore whether the expression of CD206 in macrophages is dependent on stimulatory factors from tumor cells (e.g., tumor educated macrophages), conditioned media was collected from an established cell line (E18-14C-27 cells) derived from a mammary tumor of an MMTV-Neu mouse. When RAW 264.7 (macrophage-like) cells were stimulated with conditioned media from the E18-14C-27 cancer cells and treated with increasing concentrations of LG268 for 24 hours, a decrease in the expression of CD206 was observed by immunoblotting (FIG. 2E).
On the technique in general: A western blot detects proteins with antibodies after separation by electrophoresis.

The mark [2] stands for this setting: 100 mg/kg diet, LG268 5 days, bexarotene 10 days, western blot.

`Cc1cc2c(cc1C1(c3ccc(C(=O)O)cn3)CC1)C(C)(C)CCC2(C)C` [LG268]: the “average number of lung tumors” value in the test on lung tumors of A/J mice (LG268 100 mg/kg diet 12 weeks, C 50 mg/kg i.p., P 15 mg/kg i.p., 6 injections, control 3.4±0.25) came out at 2.2±0.28. Moreover, in the test on lung tumors of A/J mice (control 0.58±0.09 mm^3), the average tumor size is recorded as 0.24±0.03 mm^3. Further, the average tumor burden in the test with lung tumors of A/J mice (control 1.99±0.34 mm^3) worked out at 0.52±0.12 mm^3. The “percentage of high grade tumors” value in the test with lung tumors of A/J mice (control 71%) was found to be 52%. In the test with lung tumors of A/J mice (mouse, in vivo), the “decrease of average tumor size vs controls” value is recorded as 59% and the “diminution of average tumor burden vs control” value came out at 74%. Moreover, the “PD-1 expression in tumors vs control” value in test [1] (100 mg/kg diet, 5 days) is listed as “lower”. In test [1] (100 mg/kg diet, LG268 5 days, CW-V-125 10 days, western blot and/or immunohistochemistry), the “PD-L1 expression in tumors vs control” value is on record as “significantly higher”. Further, in test [1] (100 mg/kg diet, LG268 5 days, bexarotene 10 days, control 1.9%), the “myeloid derived suppressor cells (CD45+, CD11b+, Gr1+) in tumors” value was 0.8 % of CD45+ immune cells. Further, in test [1] (100 mg/kg diet, LG268 5 days, bexarotene 10 days, control diet 3.2%), the “mammary tumor size (tumor weight as percentage of total body weight)” value is 1.1 % of total body weight. The “cleaved caspase 3 in tumors” value in test [1] (100 mg/kg diet, LG268 5 days, bexarotene 10 days, immunohistochemistry) is “increase”. Besides, in test [1] (setting [2]), the “reduction of CD206 expression in tumor lysates” value came to 65% and the “reduction of p-STAT1 expression in whole tumor lysates” value is recorded as 80%. In addition, the “activated CD4 T cells (CD45+, CD3+, CD4+, CD25+) in tumors” value in test [1] (100 mg/kg diet, control 27.5%) was determined as 13.0%. In addition, the “expression of p-STAT3 or p-STAT5 in tumor lysates” value in test [1] (100 mg/kg diet, western blot) is listed as “no changes”. The “caliber of the vessels in the tumors” value in test [1] (CD31 immunohistochemistry) is “reduced”. In test [1] (immunohistochemistry), the “FOXP3 expression in tumors” value is recorded as “decreased”. For the same compound, in test [1] (mouse, in vivo), the “time to complete regression of the tumors” value is listed as “less than 10 days”. Also, in the test with tumors of PyMT mice (100 mg/kg diet, control 31 days), the “average survival (time to maximum tumor volume)” value was determined as 49 days. In the test with tumors of PyMT mice (at endpoint), the “infiltration of CD8 T cells” value is listed as “increased infiltration”; the “levels of CD206 and p-STAT3 in whole lysates of the tumors” value is given as “No differences”. The “cells undergoing apoptosis (cleaved caspase 3)” value in the test with tumors of PyMT mice (immunohistochemistry at endpoint) was “higher number of cells undergoing apoptosis”. Also, the “p-STAT1 in whole lysates of tumors” value in the test on tumors of PyMT mice (western blot at endpoint) is on record as “tendency for lower levels”. Further, the CD206 expression result with CD206 is “decrease”.
